Assay results reported in patent US20260028673A1, “PR[…] OF TCF1+ […]-CELLS IN SEVERE COVID-19 AS MEDIATED BY INTERLEUKIN 12 (IL-12)” (priority 2022, published 2026).
“Also recorded” adds a separate entry of the source.

What was measured:
[1] = test system: IL-12 production; conditions: reference 51; cited from earlier work
[2] = test system: COVID-19; conditions: reference 50; cited from earlier work
[3] = test system: TCF-1; conditions: reference 67; transcriptional level, by inhibiting DNA methyltransferases; cited from earlier work
[4] = biological target: IL12p40 (Homo sapiens, UniProt P29460); format: cell-based; conditions: severe sera, 6 days, FIG. 9D
Chain of IL12p40 (P29460 23-328): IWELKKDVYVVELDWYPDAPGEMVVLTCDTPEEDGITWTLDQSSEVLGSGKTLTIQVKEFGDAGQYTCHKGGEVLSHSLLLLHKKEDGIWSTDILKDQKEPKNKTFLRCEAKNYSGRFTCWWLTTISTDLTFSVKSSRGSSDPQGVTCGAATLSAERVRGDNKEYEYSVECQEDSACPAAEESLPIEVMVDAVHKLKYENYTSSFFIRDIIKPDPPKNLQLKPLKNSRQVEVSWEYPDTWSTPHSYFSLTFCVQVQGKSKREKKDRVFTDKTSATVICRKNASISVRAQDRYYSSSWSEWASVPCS
Chain of IL12p40 (P29459 23-219, further chain): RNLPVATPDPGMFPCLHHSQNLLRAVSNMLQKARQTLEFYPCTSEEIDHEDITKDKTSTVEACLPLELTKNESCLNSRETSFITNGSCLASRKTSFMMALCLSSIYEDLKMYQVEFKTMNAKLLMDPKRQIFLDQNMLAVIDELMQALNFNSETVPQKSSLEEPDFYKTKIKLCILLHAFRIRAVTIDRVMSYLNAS

Question: For `C[C@@H]1C[C@H]2[C@@H]3CCC4=CC(=O)C=C[C@]4(C)[C@@]3(F)[C@@H](O)C[C@]2(C)[C@@]1(O)C(=O)CO` [dexamethasone], which IL-12 production [1] is on record?
Answer: inhibits IL-12 production

Question: And the “Success in treating COVID-19 patients” value [2]?
Answer: proven successful

Question: Which results are given for “IL-12: proinflammatory cytokine interleukin 12”?
Answer: TCF-1 (TCF1) expression [3]: down-regulate TCF-1 at the transcriptional level; also recorded: downregulate TCF1; TCF1 expression in naïve, TCM, TEM and TEMRA T-cell subsets [4]: restored
